These results are taken from patent US8175860B2, “Method of inhibiting the growth of Helicobacter pylori” (priority 2009, dated 2012).

For this experiment, the target named is T1, HpDHQS (dehydroquinate synthase of H. pylori) (Helicobacter pylori, UniProt P56081, I144T).
T1 construct: His tag (inferred from the pQE30 vector and nickel-ion purification); made in house; host or cells: E. coli JM109
T1 sequence (P56081 1-343 I144T): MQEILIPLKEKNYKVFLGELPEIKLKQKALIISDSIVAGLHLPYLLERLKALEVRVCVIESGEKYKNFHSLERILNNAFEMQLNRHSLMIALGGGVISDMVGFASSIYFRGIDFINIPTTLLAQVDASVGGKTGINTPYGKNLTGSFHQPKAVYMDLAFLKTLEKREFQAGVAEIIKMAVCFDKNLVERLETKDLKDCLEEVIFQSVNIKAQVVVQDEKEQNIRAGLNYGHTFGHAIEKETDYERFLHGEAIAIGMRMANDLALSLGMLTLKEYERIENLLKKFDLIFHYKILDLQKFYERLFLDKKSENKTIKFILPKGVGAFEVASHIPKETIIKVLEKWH
Kind of experiment: HpDHQS inhibition assay (thiobarbiturate assay of residual DAHP). As to conditions: 1 μM HpDHQS, 37° C., pH 7.0. It is filed as biochemical. The method, then: The level of DAHP was determined by a thiobarbiturate assay method. All assays were conducted at 37° C. in a 200-μl solution containing 20 mM Bis-Tris propane buffer (pH 7.0), 0.5 mM DAHP, 0.02 mM cobalt chloride, 0.02 mM NAD^+ and 1 μM HpDHQS. The residual DAHP was oxidized by per-iodate to produce formylpyruvate, which then reacted with thiobarbiturate to yield a pink adduct, and this chromophore was monitored at A549 after extraction into cyclohexanone.
Compounds were prepared to 100 mM in dimethylsulfoxide (DMSO) solutions. A 5% DMSO control was included for each set of measurements. About 1 μM HpDHQS was added to the mixture containing the compound to be tested with the standard assay mixture. The test compounds were also evaluated whether they interfered the thiobarbiturate assay system in the absence of HpDHQS. The initial velocities were plotted against the inhibitor concentrations to obtain the IC50 by using the following equation A[I]=A[0]×{1−([I]/[I]+IC50)]} wherein A[I] was the enzyme activity with inhibitor concentration [I], and A[0] was the enzyme activity without the inhibitor.

Turning to `CC1CCc2c(sc(NC(=O)CSc3nc4ccccc4s3)c2C#N)C1` (centres unmarked) [HTS11955, 2-(1,3-benzothiazol-2-ylsulfanyl)-N-(3-cyano-6-methyl-4,5,6,7-tetrahydro-1-benzothiophen-2-yl)acetamide], the IC50 was 61 µM. In turn, `CSc1c(C#N)c(N)nc(SCC(=O)c2cccc([N+](=O)[O-])c2)c1C#N` [RH00573, 2-amino-4-methylsulfanyl-6-[2-(3-nitrophenyl)-2-oxoethyl]sulfanylpyridine-3,5-dicarbonitrile] came in with an IC50 of 84.4 µM.

What is called IC50 is the concentration at which inhibition is half-maximal. Higher therefore signals weaker potency.
